{
  "source": "patent US8445707B1",
  "about": "“Compound, composition and uses thereof” (Krisani Biosciences (P) Ltd., priority 2012, dated 2013)",
  "test": "Pharmacokinetics of KB-ND-002 compared to Cysteamine Hydrochloride and EPA in mouse plasma and brain after oral administration",
  "assay_type": "in vivo, male mice",
  "details": "for maximum concentration of Cysteamine after dosing compared to endogenous levels in control group animals: analyte Cysteamine",
  "protocol": "Method of Treatment, Testing and Results Using the Final Compound of formula 1 at Charles River Labs: Pharmacokinetics of KB-ND-002 compared to Cysteamine Hydrochloride and EPA in Mouse Plasma and Brain\nParameter estimation was performed on mean plasma and brain Eicosapentanoiec acid, KB-ND-002 and Cysteamine concentration vs nominal sampling time values from 3 animals per timepoint. Parameter estimates were derived for each analyte, and matrix using a non-compartmental approach in WinNonlin Enterprise version 5.2.1 (Pharsight Corp., Mountain View, Calif., USA) in accordance with Charles River standard operating procedures. A WinNonlin regression analysis was performed with each concentration vs time profile reviewed by means of visual inspection to appropriately characterise the apparent terminal elimination phase and optimise the reliability of the lambda-z estimation.\nFollowing Oral Administration of KB-ND-002 (Formula 1), Cysteamine or Eicosapentanoiec Acid in Male Mice, Concentration Vs Time Profiles were Partially Evaluable for PK Purposes.",
  "note": "Where two headings read alike, the source gives them in different places.",
  "data": [
    {"molecule": "CC/C=C\\C/C=C\\C/C=C\\C/C=C\\C/C=C/CCCC(=O)NCCSC(C)=O", "note": "[KB-ND-002]", "values": [
      {"measurement": "Kp", "setting": "male, mouse, brain and plasma, oral, brain at highest dose vs plasma after low dose (60 mg/kg), read-out: systemic exposure to KB-ND-002 in brain relative to plasma", "result": "< 0.01"},
      {"measurement": "dose proportionality based on dose normalised estimates of Cmax and AUC(0-t)", "setting": "plasma, oral KB-ND-002", "result": "sub-proportional"}
    ]},
    {"molecule": "NCCS", "note": "[Cysteamine]", "values": [
      {"measurement": "systemic exposure to Cysteamine, comparison between groups", "setting": "112 mg/kg Cysteamine administered", "result": "greatest"},
      {"measurement": "maximum concentration of Cysteamine after dosing compared to endogenous levels in control group animals", "setting": "brain, oral, male mice", "result": "up to 10 fold"},
      {"measurement": "maximum concentration of Cysteamine after dosing compared to endogenous levels in control group animals", "setting": "plasma, oral, male mice", "result": "over 400 fold"},
      {"measurement": "Cysteamine concentrations quantifiable over sampling period", "setting": "brain, sampling duration 5 h", "result": "quantifiable for the entire duration of sampling"},
      {"measurement": "Tmax", "setting": "male, mouse, brain, Group 4, 112 mg/kg Cysteamine oral, read-out: time of peak concentration of Cysteamine (Tmax)", "result": 30, "unit": "min"},
      {"measurement": "Tmax", "setting": "male, mouse, plasma, Group 4, 112 mg/kg Cysteamine oral, read-out: time of peak concentration of Cysteamine (Tmax)", "result": 4.8, "unit": "min"},
      {"measurement": "Cysteamine concentrations observed over sampling period", "setting": "plasma, only following administration of Cysteamine (Group 4)", "result": "only consistently observed for the entire duration of sampling"}
    ]},
    {"molecule": "CC/C=C\\C/C=C\\C/C=C\\C/C=C\\C/C=C\\CCCC(=O)O", "note": "[Eicosapentanoiec acid]", "values": [
      {"measurement": "systemic exposure to Eicosapentanoiec acid, comparison between groups", "setting": "112 mg/kg Eicosapentanoiec acid administered", "result": "greatest"},
      {"measurement": "maximum concentration of Eicosapentanoiec acid after dosing compared to endogenous levels in control group animals", "setting": "analyte Eicosapentanoiec acid, plasma, oral, male mice", "result": "over 20 fold"},
      {"measurement": "Tmax", "setting": "male, mouse, brain, Group 5, 112 mg/kg Eicosapentanoiec acid oral, read-out: time of peak concentration of Eicosapentanoiec acid (Tmax)", "result": 60, "unit": "min"},
      {"measurement": "Tmax", "setting": "male, mouse, plasma, Group 5, 112 mg/kg Eicosapentanoiec acid oral, read-out: time of peak concentration of Eicosapentanoiec acid (Tmax)", "result": 60, "unit": "min"},
      {"measurement": "Eicosapentanoiec acid concentrations quantifiable over sampling period", "setting": "plasma and brain, sampling duration 5 h", "result": "quantifiable for the entire duration of sampling"}
    ]}
  ]
}
